Key:
[1] = target: serum DPP-IV (Mus musculus, UniProt P28843); experiment: Serum DPP-IV activity in mice two hours after administration (indicator of bioavailability); format: in vivo; conditions: 0.2-, 2.0-, 20-, 200-μg doses, subcutaneous injection vs oral gavage, serum two hours later
[2] = system: chemokine KC; experiment: Serum levels of the chemokine KC by ELISA in mice after administration
[3] = system: WEHI 164 tumor cells; experiment: WEHI 164 mouse tumor model (subcutaneous inoculation of 4×10^6 tumor cells); format: in vivo, mice; conditions: for Tumor sizes, subcutaneous compared to oral: day 20; for Tumor sizes (mean tumor volumes) on day 20 versus saline control: all 3 doses, twice daily day 2 to day 19, n=10; for Incidence of tumor rejection (%): recorded on day 20
Procedure: FIG. 2. Comparison of the anti-tumor activity of Ile-boroPro administered orally or by subcutaneous injection in the WEHI 164 mouse tumor model. Mice were inoculated subcutaneously with 4×10^6 tumor cells and administered Ile-boroPro twice daily from day 2 to day 19 after tumor inoculation, either by oral gavage (open bars) or subcutaneous injection (solid bars). Control mice received saline (hatched bar). The data represent mean tumor volumes±SEM (n=10) were recorded on day 20.
Mice were inoculated subcutaneously with 4×10^6 WEHI 164 tumor cells and administered 2-, 5- or 10-μg doses of Ile-boroPro twice daily from day 2 to […] after tumor inoculation, either by oral gavage or subcutaneous injection. Control mice received saline. […] The greater efficacy of subcutaneous administration was also reflected in the incidence of tumor rejection in mice receiving treatment with the various doses of Ile-boroPro (Table 2). […] It should be noted that tumor rejection was never observed in mice inoculated with WEHI 164 and treated with saline.

Chain of serum DPP-IV (P28843 37-760 limits assumed): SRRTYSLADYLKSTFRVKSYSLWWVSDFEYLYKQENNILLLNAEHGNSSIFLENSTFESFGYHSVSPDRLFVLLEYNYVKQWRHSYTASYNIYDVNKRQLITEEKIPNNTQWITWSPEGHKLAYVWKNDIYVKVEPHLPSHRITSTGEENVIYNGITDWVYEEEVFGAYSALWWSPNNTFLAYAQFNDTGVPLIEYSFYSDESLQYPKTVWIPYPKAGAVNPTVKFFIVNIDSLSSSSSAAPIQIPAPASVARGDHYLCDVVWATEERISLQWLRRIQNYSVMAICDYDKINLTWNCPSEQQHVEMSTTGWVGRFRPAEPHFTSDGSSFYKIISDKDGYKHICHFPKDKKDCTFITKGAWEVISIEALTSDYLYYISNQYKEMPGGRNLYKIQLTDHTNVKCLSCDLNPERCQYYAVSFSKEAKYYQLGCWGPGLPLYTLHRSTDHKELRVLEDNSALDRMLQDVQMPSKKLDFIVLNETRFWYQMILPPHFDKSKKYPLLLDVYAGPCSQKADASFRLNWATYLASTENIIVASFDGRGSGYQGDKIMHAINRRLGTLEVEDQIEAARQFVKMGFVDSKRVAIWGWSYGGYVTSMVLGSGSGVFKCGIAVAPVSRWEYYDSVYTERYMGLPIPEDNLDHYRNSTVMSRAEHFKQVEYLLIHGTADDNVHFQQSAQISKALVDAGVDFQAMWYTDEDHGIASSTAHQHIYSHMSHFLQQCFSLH

SMILES: CCC(C)C(N)C(=O)N1CCCC1B(O)O (stereo not shown) [Ile-boroPro]
- Bioavailability judged from dose response of inhibition of serum DPP-IV, subcutaneous versus oral [1]: more bioavailable
- Time of maximal increases in serum KC levels after administration [2]: 2 h
- Suppression of tumor growth, subcutaneous versus oral administration (tumor volumes on day 20) ([3]; 2-, 5- or 10-μg doses twice daily): more effective than oral administration in suppressing tumor growth
- Tumor sizes, subcutaneous compared to oral ([3]; 2-μg dose twice daily, P<0.0005): significantly smaller
- Tumor sizes, subcutaneous compared to oral ([3]; 5-μg dose twice daily, P<0.005): significantly smaller
- Tumor sizes (mean tumor volumes) on day 20 versus saline control ([3]; oral gavage, P<0.05): significant reduction in tumor sizes
- Incidence of tumor rejection (%) ([3]; oral, 10 μg twice daily day 2 to day 19, 2 separate experiments): caused tumor rejection
- Tumor sizes (mean tumor volumes) on day 20 versus saline control ([3]; subcutaneous injection, P<0.00005): significant reduction in tumor sizes
- Incidence of tumor rejection (%) ([3]; subcutaneous, 2 μg twice daily day 2 to day 19, one experiment): 60%
- Incidence of tumor rejection (%) ([3]; subcutaneous, 5 μg twice daily day 2 to day 19, one experiment): 70%
